Where two headings read alike, the source gives them in different places.
What was measured:
Format in all cases: in vivo
[1] = system: Tetranychus urticae; assay: Tetranychus urticae - spray test, OP-resistant (Example A, French bean leaf disks); settings: for pest or weed control at 1.2 g/ha: 1.2 g ai/ha
Excerpt: (§1) E is the efficacy expressed in % mortality of the untreated control using the mixture of A and B at m and n ppm respectively m and n g/ha, • then is
Tetranychus urticae—Spray Test OP-Resistant
Solvent: 78.0 parts by weight acetone • 1.5 parts by weight dimethylformamide
Emulsifier: alkylarylpolyglycol ether […]
French bean (Phaseolus vulgaris) leaf disks infected with all instars of the two spotted spidermite (Tetranychus urticae), are sprayed with a preparation of the active ingredient of the desired concentration.
After the specified period of time, mortality in % is determined. 100% means all spider mites have been killed and 0% means none of the spider mites have been killed. The mortality values determined thus are recalculated using the Colby-formula (see above).

[2] = system: Tetranychus urticae; assay: Tetranychus urticae - spray test, OP-resistant (Example B, infested bean plants); settings: single active ingredient, mortality
Protocol: as §1
Tetranychus urticae—Spray Test; OP-Resistant
(§2) Solvent: 7 parts by weight of dimethylformamide
Emulsifier: alkylaryl polyglycol ether
Further test concentrations are prepared by dilution with emulsifier containing water.
After the specified period of time mortality in % is determined. 100% means all the spider mites have been killed and 0% means none of the spider mites have been killed. The mortality values determined thus are recalculated using the Colby-formula (see above).

[3] = system: Meloidogyne incognita; assay: Meloidogyne incognita - test (Example D, soil drench, salad seeds, gall formation); settings: single active ingredient, reduction of gall formation
Protocol: The expected efficacy of a given combination of two compounds is calculated as follows (see Colby, S. R., “Calculating Synergistic and antagonistic Responses of Herbicide Combinations”, Weeds 15, pp. 20-22, 1967): • If • X is the efficacy expressed in % mortality of the untreated control for test compound A at a concentration of m ppm respectively m g/ha, • Y is the efficacy expressed in % mortality of the untreated control for test compound B at a concentration of n ppm respectively n g/ha,
as §1
[formula] • If the observed insecticidal efficacy of the combination is higher than the one calculated as “E”, then the combination of the two compounds is more than additive, i.e., there is a synergistic effect.
Meloidogyne incognita—Test
as §2
Emulsifier: 2.5 parts by weight of alkylarylpolyglycolether
To produce a suitable preparation of active compound, 1 part by weight of active compound is mixed with the stated amount of solvent and emulsifier and is diluted with water to the desired concentration. To produce a suitable preparation of a spore suspension the spores are diluted with emulsifier containing water to the desired concentration. In the calculation of the concentration the soil volume has to be included. […] Further test concentrations are prepared by dilution with water.
The compound solution is poured into pots filled with soil (loamy sand). A suspension containing eggs and larvae of the southern root-knot nematode (Meloidogyne incognita) is added, salad seeds are spread on the soil surface and covered with quartz sand. The salad seeds germinate and the seedlings grow. Galls develop on the roots.
After the specified period of time the nematicidal activity is determined on the basis of the percentage of gall formation. 100% means no galls were found; 0% means the number of galls found on the roots of the treated plants was equal to that in untreated control plants. The activity determined thus is recalculated using the Colby-formula (see above).

[4] = system: Meloidogyne incognita; assay: Meloidogyne incognita - test (Example C, sand, salad seeds, gall formation); settings: single active ingredient, reduction of gall formation
Protocol: Meloidogvne incognita—Test
Solvent: 125.0 parts by weight of acetone
To produce a suitable preparation of active compound, 1 part by weight of active compound is mixed with the stated amount of solvent, and the concentrate is diluted with water to the desired concentration.
To produce a suitable preparation of a spore suspension the spores are diluted with water to the desired concentration.
Vessels are filled with sand, a solution of the active ingredient, a suspension containing eggs and larvae of the southern root-knot nematode (Meloidogyne incognita) and salad seeds. The salad seeds germinate and the seedlings grow. Galls develop in the roots.
After the specified period of time nematicidal activity is determined on the basis of the percentage of gall formation. 100% means no galls were found and 0% means the number of galls found on the roots of the treated plants was equal to that in untreated control plants.

[5] = Tetranychus urticae, foliar, 144 h, single active ingredient, mortality, read-out: Efficacy in % after 6 days
[6] = 0.5 g ai/ha, single active ingredient, mortality
[7] = Tetranychus urticae, foliar, 144 h, read-out: Efficacy in % after 6 days
[8] = Tetranychus urticae, foliar, 144 h, 0.5 g ai/ha, single active ingredient, mortality, read-out: Efficacy in % after 6 days

## CCCCCCCCCCCCC1=C(OC(C)=O)C(=O)c2ccccc2C1=O [Acequinocyl, acequinocyl]
[1]; 1 g ai/ha, single active ingredient, mortality
  Efficacy in % after 2 days: 0%
[1]; Tetranychus urticae, foliar, 144 h, 1 g ai/ha, single active ingredient, mortality, read-out: Efficacy in % after 6 days
  pest or weed control at 1 g/ha: 0%

## COc1ccc(-c2ccccc2)cc1NNC(=O)OC(C)C [Bifenazate]
[1]; Tetranychus urticae, foliar, 144 h, 0.25 g ai/ha, single active ingredient, mortality, read-out: Efficacy in % after 6 days
  pest or weed control at 0.25 g/ha: 0%
[1]; Tetranychus urticae, foliar, 144 h, 1.8 g ai/ha, single active ingredient, mortality, read-out: Efficacy in % after 6 days
  pest or weed control at 1.8 g/ha: 0%
[2]; 2 ppm
  Efficacy in % after 7 days: 65%

## Cc1cc(F)c(N=C2SCC(=O)N2CC(F)(F)F)cc1[S+]([O-])CC(F)(F)F (centres unmarked) [Cpd of formula (I)]
[1]; [5]
  pest or weed control at 1.2 g/ha: 70%
[2]; 0.2 ppm
  Efficacy in % after 7 days: 0%
[2]; 0.4 ppm
  Efficacy in % after 4 days: 0%
  Efficacy in % after 7 days: 10%
[2]; 0.8 ppm
  Efficacy in % after 4 days: 25%
[3]; 10 ppm
  Efficacy in % after 20 days: 0%
[3]; 20 ppm
  Efficacy in % after 20 days: 15%

## O=C(Nc1ccn(-c2c(F)cccc2F)n1)c1ccccc1C(F)(F)F [Cpd of formula (IIb), N-[1-(2,6-difluorophenyl)-1H-pyrazol-3-yl]-2-(trifluoromethyl)benzamide]
[4]; 1.5 ppm
  Efficacy in % after 14 days: 0%
[3]; 0.4 ppm
  Efficacy in % after 20 days: 0%

## CC(C)c1cc(Oc2ccccc2)cc(C(C)C)c1NC(=S)NC(C)(C)C [Diafenthiuron, diafenthiuron]
[1]; [6]
  Efficacy in % after 2 days: 0%
[1]; [7]
  pest or weed control at 0.5 g/ha: 0%
  pest or weed control at 3 g/ha: 0%
[2]; 3.2 ppm
  Efficacy in % after 7 days: 15%

## CC(C)(C)c1ccc(CCOc2ncnc3ccccc23)cc1 [Fenazaquin, fenazaquin]
[1]; [5]
  pest or weed control at 1.2 g/ha: 0%
[1]; Tetranychus urticae, foliar, 144 h, 2.4 g ai/ha, single active ingredient, mortality, read-out: Efficacy in % after 6 days
  pest or weed control at 2.4 g/ha: 0%

## Cc1nn(C)c(Oc2ccccc2)c1C=NOCc1ccc(C(=O)OC(C)(C)C)cc1 [Fenpyroximate, fenpyroximate]
[1]; [7]
  pest or weed control at 0.2 g/ha: 0%

## COc1ccc(Cl)c(S(=O)(=O)NC(=O)c2cn3cc(C(F)(F)F)cc(Cl)c3n2)c1 [Fluazaindolizine]
[4]; 0.025 ppm
  Efficacy in % after 14 days: 0%
[3]; 0.2 ppm
  Efficacy in % after 20 days: 0%
[3]; 0.4 ppm
  Efficacy in % after 20 days: 40%

## O=S(=O)(CCC(F)=C(F)F)c1ncc(Cl)s1 [Fluensulfone]
[4]; 0.1 ppm
  Efficacy in % after 14 days: 0%
[4]; 0.2 ppm
  Efficacy in % after 14 days: 0%
[3]; 0.4 ppm
  Efficacy in % after 20 days: 0%

## O=C(NCCc1ncc(C(F)(F)F)cc1Cl)c1ccccc1C(F)(F)F [Fluopyram]
[3]; 0.04 ppm
  Efficacy in % after 20 days: 0%
[3]; 0.08 ppm
  Efficacy in % after 20 days: 0%

## CNC(=O)Oc1cc(C)c(SC)c(C)c1 [Methiocarb, 4-methylthio-3,5-xylyl methylcarbamate]
[1]; Tetranychus urticae, foliar, 144 h, 6 g ai/ha, single active ingredient, mortality, read-out: Efficacy in % after 6 days
  pest or weed control at 6 g/ha: 0%
[1]; Tetranychus urticae, foliar, 144 h, 12 g ai/ha, single active ingredient, mortality, read-out: Efficacy in % after 6 days
  pest or weed control at 12 g/ha: 0%

## CC(C)(C)c1ccc(CSc2cnn(C(C)(C)C)c(=O)c2Cl)cc1 [Pyridaben, pyridaben]
[1]; [8]
  pest or weed control at 0.5 g/ha: 0%

## CCc1nn(C)c(C(=O)NCc2ccc(C(C)(C)C)cc2)c1Cl [Tebufenpyrad, tebufenpyrad]
[1]; [6]
  Efficacy in % after 2 days: 0%
[1]; [8]
  pest or weed control at 0.5 g/ha: 0%

## c1ccc(-c2noc(-c3cccs3)n2)cc1 [Tioxazafen]
[3]; 1.25 ppm
  Efficacy in % after 20 days: 0%

From US11819025B2, “Active compound combinations having insecticidal/acaricidal properties” (Bayer Aktiengesellschaft, priority 2017, dated 2023)
